Results on two substances are retold here after publication PMC8964799, “Inhibition of triple negative breast cancer-associated inflammation, tumor growth and brain colonization by targeting monoacylglycerol lipase” (Scientific Reports, 2022).

In assay [1] the target is T1, human monoacylglycerol lipase (hMAGL) (Homo sapiens, UniProt Q99685).
T1 construct: gene MGLL; highly purified recombinant hMAGL
T1 sequence (Q99685 1-303): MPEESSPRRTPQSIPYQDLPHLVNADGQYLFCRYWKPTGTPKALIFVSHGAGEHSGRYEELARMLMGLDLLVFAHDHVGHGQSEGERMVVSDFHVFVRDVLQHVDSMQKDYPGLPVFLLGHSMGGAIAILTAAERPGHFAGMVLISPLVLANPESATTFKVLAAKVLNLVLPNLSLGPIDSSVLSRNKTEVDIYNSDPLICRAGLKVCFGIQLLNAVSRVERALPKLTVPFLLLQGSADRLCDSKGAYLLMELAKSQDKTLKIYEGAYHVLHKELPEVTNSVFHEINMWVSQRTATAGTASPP
Description: target-based real-time 1H NMR (chemical shift perturbation, covalent adduct formation and reactivation; residence time […] h); IC50 on recombinant hMAGL also printed. The format is biochemical. The settings on record: cited from earlier work.

The target of assay [2] is T1, human monoacylglycerol lipase (hMAGL). The assay is described as follows: target-based real-time 1H NMR (chemical shift perturbation, covalent adduct formation and reactivation; residence time). The format is binding.

The IC50 is the concentration that gives 50% inhibition. AM9928: the concentration for half-maximal inhibition (IC50) in assay [1] is 8.9 nM.

For the substance AM4301, the “target-based real-time 1H NMR (chemical shift perturbation, covalent adduct form)” value in assay [2] was 1.4 h.
